The source of these data is PMC10025185, “A continuous in silico learning strategy to identify safety liabilities in compounds used in the leather and textile industry” (Archives of Toxicology, 2023).

Structures are written as SMILES. Where two headings read alike, the source gives them in different places.

On the set-up of data set [1]: method as in earlier work. As to conditions: ref https://comptox.epa.gov/dashboard, https://echa.europa.eu/es/information-on-chemicals, cited from earlier work.
Data set [2] in a line: logKow as a measure of bioaccumulation, extracted from public databases. Type of data set: physicochemical. As to conditions: yes/no by logKow, REACH cut off 4,5.
The subject of data set [3] is CHO-K1 (Chinese hamster ovary cells). It is filed as cell-based. How it is done: The in vitro micronucleus test is a genotoxicity test for the detection of micronuclei in the cytoplasm of interphase cells. Tests were conducted in the presence of the cytokinesis blocker cytochalasin B with three different treatment schedules: (i) short treatment for 6 h; (ii) short treatment for 6 h in the presence of an exogenous source of metabolic activation (cofactor supplemented S9 liver fraction); and (iii) extended treatment for 24 h.
CHO-K1 (Chinese hamster ovary cells, ATCC Item Number CCL-61) were cultured in DMEM F-12 containing 10% foetal bovine serum and 100 units/ml penicillin/100 μg/ml streptomycin (all from Sigma-Aldrich, St Louis, USA). Cells were seeded at 3000 cells/well in a collagen-coated 96-well plate in 100 μl. After 24 h, cells were incubated with CellTracker Orange CMTMR cellular dye solution (Invitrogen, Waltham, USA) for 1 h. Cells were then treated with compounds for 6 h, with or without S9 metabolic activation, or 24 h without S9 metabolic activation. […] After the 6-h compound treatment, cells were incubated with cytochalasin B (Alfa Aesar, Kandel, Germany) for 24 h. In case of 24-h treatment, cells were incubated with compounds in the presence of cytochalasin B and harvested after treatment. Benzo(a)pyrene, mitomycin C, and colchicine were used as positive controls for 6 h, with or without metabolic activation or 24 h treatments, respectively. […] After several washes with BupH-modified DPBS, cells were analysed in an Operetta High-Content Imaging System (PerkinElmer, Waltham, USA). […] Statistical significance was determined with the ANOVA test with significance level adjusted to p < 0.05.

Data set [4] deals with zebrafish embryos. As to conditions: in vivo. How it is done: (§1) Zebrafish embryos obtained and maintained as described previously for toxicity determination were used to determine (I) terato-carcinogenesis assayed as previously informed (Selderslaghs et al. [2009], [2012]) with modifications. In brief, embryos were incubated for 0 hpf up to 120 hpf in the presence and absence of tested compounds. Each condition was assayed in triplicate with 12 embryos per condition per replicate. The appearance of selected characteristics and malformations with respect to normal development were quantified for the eyes, otoliths, heart, circulation, hatching, skeletal deformities, and body position. For each concentration tested, we assessed the mortality and the presence of malformations at 24, 48, 72, 96, and 120 hpf using a light microscope. When possible, the lethal effects (LC50) and terato-carcinogenic effects (EC50) were determined using the ToxRat software. Based on these values, a teratogenic index (TI) was calculated as LC50/EC50. Based on previous studies, we considered a compound to be a teratogen when TI > 2 at 120 hpf. When no TI could be calculated due to no malformations induction to a degree extensive enough to calculate the EC50 in the presence of high toxicity, the compound was considered a non-teratogen. (II) Neurotoxicity was assayed by evaluating the locomotor activity in embryos exposed to the tested compounds from 0 to 120 hpf using Zebrabox and Zebralab (ViewPoint). We tested three concentrations (24 embryos per concentration) below the NOEC to avoid readily toxic concentrations. After incubation with tested compounds for 120 hs in 96-well plates, the activity of larvae in response to transitions from dark to light was evaluated. The protocol involved an initial 10 min acclimation period inside the Zebrabox, followed by three cycles of light–dark of 10 min each. After the end of each cycle, the integrated activity of each embryo was registered. Statistical analysis was done using ANOVA, followed by the Tukey post hoc test. Differences were considered significant when p < 0.05. Dead embryos were not considered in the analysis. (III) The endocrine-disrupting effect in zebrafish embryos was assayed by real-time PCR as previously reported (Jarque et al. [2019]) with modifications. In brief, 0 hpf embryos (12 embryos per condition in triplicate) were incubated with selected compounds for up to 120 hpf. After incubation, treated (embryos incubated at the concentration right below the NOEC) and control embryos were collected in RNA later and kept at − 20°C until use. RNA was extracted from the samples using the RNeasy Mini Kit (QIAGEN) and was followed by cDNA synthesis using random primers and the AffinityScript Multi Temperature cDNA Synthesis Kit (Agilent Technologies). Finally, real-time PCR was performed for eight target genes to obtain data on the estrogenic (cytochrome P450 family 19 subfamily A member 1: cyp19a1b, and vitellogenin: vtg1), androgenic (cytochrome P450 family 2 subfamily W member 1: cyp2k22, and cytosolic sulphotransferase 3: sult2st3), and thyroid hormone (thyroid peroxidase: tpo, thyroid hormone receptor alpha: tra, transthyretin: ttr, and iodothyronine deiodinase 2: dio2) effect of the tested compounds. Significant changes in gene expression between controls and treated samples were considered as a potential endocrine-disrupting effect.

Data set [5] relates to zebrafish embryos. As to conditions: in vivo.
Description: In REACH, most of the mammalian tests for chemical safety assessment are related to reproductive toxicity (ECHA [2020]; Rovida and Hartung [2009]; Sellick [2011]) and consider complex molecular and cellular mechanisms determined in long-term experiments with very low throughput. To avoid the use of animals and to assay reproductive toxicity in a relevant 'non-animal' model adhering to the 3Rs rule, we used zebrafish embryos up to 120 hpf. Up to this developmental stage, the embryos are not considered animals according to European legislation (Sellick [2011]). When they reach the stage of independent feeding, zebrafish embryos become subject to regulations for animal experimentation. We performed a set of previously described experiments to cover a wide range of potential reprotoxic effects, including terato-carcinogenesis, developmental neurotoxicity, and endocrine disruption.
as §1, with “Technologies).” for “Technologies). Finally, real-time PCR was performed for eight target genes to obtain data on the estrogenic (cytochrome P450 family 19 subfamily A member 1: cyp19a1b, and vitellogenin: vtg1), androgenic (cytochrome P450 family 2 subfamily W member 1: cyp2k22, and cytosolic sulphotransferase 3: sult2st3), and thyroid hormone (thyroid peroxidase: tpo, thyroid hormone receptor alpha: tra, transthyretin: ttr, and iodothyronine deiodinase 2: dio2) effect of the tested compounds. Significant changes in gene expression between controls and treated samples were considered as a potential endocrine-disrupting effect.”
This is another data set of the same source.

Data set [6] relates to androgen and oestrogen receptors. Kind of data set: ED assays of androgen and oestrogen receptors (overall experimental ED result). It is filed as cell-based. As for the experimental part: The transcriptional activation of androgen receptor (AR) assays was carried out by adapting the OECD protocol 458 (OECD [2020]).
MDA-MB-453 cells (8000 cells/well) expressing an AR luciferase reporter were seeded into 384 white plates (Greiner 781098) in culture medium (DMEM (ATCC), 10% foetal bovine serum (Sigma Aldrich), 1% penicillin–streptomycin (Sigma-Aldrich), 75 µg/ml geneticin (Gibco) and incubated overnight at 37 °C 5% CO2 and 95% humidity. After this time, the cell culture medium was discarded and replaced by assay medium (DMEM (ATCC), 0.1% foetal bovine serum (Sigma-Aldrich), and 1% penicillin–streptomycin (Sigma Aldrich)).
For studying a putative agonist effect, compounds were added to the assay plate using an Echo 550 acoustic liquid handler and incubated overnight at 37 °C 5% CO2 and 95% humidity. For studying the putative antagonist effect, compounds were added using an Echo 550 acoustic liquid handler and incubated for 15 min at 37 °C 5% CO2 and 95% humidity. Then, 1 nM 5α-dihydrotestosterone (DHT) was added, and the cell plate was incubated overnight at 37 °C, 5% CO2, and 95% humidity. After compound incubation, the cell medium was removed, 5 µl of lysis buffer 1X (Promega) was added, and the cell plate was incubated with agitation 15 min at room temperature. A freeze–thaw cycle of 10 min at −80 °C and room temperature was performed. Then 25 µl of luciferase assay reagent (Promega) was added and luminescence was determined on an EnSpire plate reader (Perkin Elmer). Data was fitted to a four-parameter sigmoidal model with Prism 5.1 (Graphpad, Inc).
The transcriptional activation of oestrogen receptor (ER) assay was carried out by adapting the OECD protocol 455 (OECD [2021]) and the method of Li et al. ([2013]).
ER luciferase reporter T47D cells (5000 cells/well) were seeded into 384 white plates (Greiner 781098) in culture medium (RPMI 1640 (Thermo Fisher Scientific 52400), 10% foetal bovine serum (Sigma Aldrich F9665), 1% penicillin–streptomycin (Sigma-Aldrich P0781), 75 µg/ml Geneticin (Gibco 10131)) and incubated overnight at 37 °C and 5% CO2. The following day, the cell culture medium was discarded and replaced by assay medium (RPMI 1640 (Thermo Fisher Scientific 52,400), 0.1% foetal bovine serum (Sigma Aldrich F9665), and 1% penicillin–streptomycin (Sigma Aldrich P0781).
The assay was performed as stated before for the AR assay using 17β-estradiol as agonist instead of DHT.
ED was assessed by transactivation in vitro assays to identify agonists and antagonists of the androgen and oestrogen receptors.
Also, the experimental group analysed the endocrine-disrupting activity for the CMR compounds.

The next data set concerns Bhas 42 cell line. The experiment in a line: Bhas 42 cell transformation assay (carcinogenesis). It is filed as cell-based. How it is done: This assay was carried out by adapting the in vitro Bhas 42 cell transformation assay method described in the OECD Guidance Document No. 231 ([2017]) based on the work of Sasaki et al. ([2014]).
It consists of two assays with a different test compound addition schedule to identify compounds with initiating activity (tumour initiators) or promoting activity (tumour promoters). Previously, a cell growth assay for 7 days is performed to set the assay doses of the CTA and another cell growth assay is concurrently performed to the CTA to verify that the selected doses meet the acceptance criteria for the tests.
The carcinogenesis potential of the compound was assayed by means of measuring the frequency of transformed foci (morphologically altered cells that form discrete anchorage-independent colonies) in the Bhas 42 cell line, which can be extrapolated to an assessment of carcinogenic potential. In the transformation assay, the incubation of compounds with two different treatment schedules allowed to identify the initiating or promoting carcinogenic potential of the compounds.

Take `O=[N+]([O-])c1ccccc1` [Nitrobenzene]: the “Bioaccumulation (logKow)” value in data set [1] (experimental value) was 1.85. Further, the Bioaccumulation result in data set [2] is recorded as “No”. Regarding `CC1=CC(=O)[C@@H](C(C)C)CC1` [(R)-6-(isopropyl)-3-methylcyclohex-2-en-1-one], in data set [3], the “Micronucleus assay (M)” value was “Negative”. Further, in the data set on zebrafish embryos [4], the “Reprotoxicity (R) Endocrine disruptor” value was “No” and the “reduction of embryo integrated activity” value was “up to 80%”. For the same compound, the “Reprotoxicity (R) Teratogen” value in the data set with zebrafish embryos [5] is listed as “No”. In the case of `C=Cc1ccccn1` [2-Ethenylpyridine], the Experimental result in data set [6] is “Yes”.

`C#CCBr` [Propargyl bromide]: the Experimental result in data set [6] (endocrine disruptor yes/no) is on record as “Yes”. Regarding `C=C(C)C(=O)O` [Methacrylic acid], the “Bioaccumulation (logKow)” value in data set [1] (experimental value) is listed as 0.93. For the same compound, in data set [2], the Bioaccumulation result is on record as “No”. Turning to `CC(Cl)C(=O)c1ccc(Cl)cc1` (centres unmarked) [2-Chloro-1-(4-chlorophenyl)propan-1-one], the “Micronucleus assay (M)” value in data set [3] (6 h with or without S9, 24 h without S9) is listed as “Negative”. Take `COC(=O)C=Cc1ccccc1` [Methyl cinnamate]: in data set [1] (experimental value), the “Bioaccumulation (logKow)” value was 2.62. Further, in data set [2], the Bioaccumulation result is “No”. For `CCCCCC1C(=O)CCC1CC(=O)OC` (centres unmarked) [Methyl dihydrojasmonate], in data set [6], the Experimental result is recorded as “Yes”.

In the case of `c1ccc2c(c1)ccc1ccccc12` [Phenanthrene], in data set [6], the Experimental result is on record as “Yes”. On to `Cc1cc(N)ccc1N.O=S(=O)(O)O` [2,5-Diaminotoluene sulphate], for which the Experimental result in data set [6] is “No”. With `O=[PH](O)O` [Phosphonic acid], the “Carcinogen (C)” value in the data set with Bhas 42 cell line is “No”. Also, the Experimental result in data set [6] is given as “No”. As to `CC(C)[C@H]1CC[C@H](C)C[C@@H]1O` [Cyclohexanol, 5-methyl-2-(1-methylethyl)-, (1S,2R,5S)-], the Experimental result in data set [6] is “No”. In the case of `C=CC(=O)NC(C)C` [N-Isopropylacrylamide], the “Bioaccumulation (logKow)” value in data set [1] (predicted value) is 0.41. Further, in data set [2], the Bioaccumulation entry was “No”. `CCNC(N)=O` [N-Ethylurea]: the “Bioaccumulation (logKow)” value in data set [1] (experimental value) is on record as -0.74. The Bioaccumulation entry in data set [2] is recorded as “No”.
